{
  "source": "patent US6328992A",
  "about": "“Cannabinoid patch and method for cannabis transdermal delivery” (priority 2000, dated 2001)",
  "key": {"[1]": {"details": "from patch of Example A; human cadaver epidermis, 37 degree Celsius, seven days"}, "[2]": {"experiment": "solubility of THC in aqueous and ionic solutions", "assay_type": "physicochemical", "source_text": "Furthermore, THC is insoluble with many solutions, including aqueous and ionically charged solutions. An application of an ionic aqueous solution to a porous material will hinder the diffusion rate of THC through the material and decrease flux of cannabis. Therefore, an appropriate combination of porous THC absorbing material, combined with a solution that is insoluble with THC, can form a suitable rate control means. An example of such a rate controlling membrane includes mixing salt water with a porous rubber membrane that covers the cavity. The thickness of the porous rubber membrane, the concentration of the salt water, and the amount of available cannabis in the cavity are optimized experimentally to create a desired flux of THC to the patient's skin. Evaporation of necessary fluids may be prevented by a protective backing layer."}, "[3]": {"details": "prior experimentation; cited from earlier work"}},
  "data": [
    {"compound": "C=C(C)[C@@H]1CCC(C)=C[C@H]1c1c(O)cc(CCCCC)cc1O", "note": "[CBD, cannabidiol]", "values": [
      {"measurement": "individual cannabinoid flux", "setting": "[1]", "result": "5.25 micrograms per square centimeter per hour"}
    ]},
    {"compound": "CCCCCc1cc(O)c2c(c1)OC(C)(C)c1ccc(C)cc1-2", "note": "[CBN, cannabinol]", "values": [
      {"measurement": "individual cannabinoid flux", "setting": "[1]", "result": "4.8 micrograms per square centimeter per hour"}
    ]},
    {"compound": "CCCCCc1cc(O)c2c(c1)OC(C)(C)[C@@H]1CCC(C)=C[C@@H]21", "note": "[THC, tetrahydrocannabinol]", "values": [
      {"measurement": "solubility with aqueous and ionically charged solutions", "setting": "[2]", "result": "insoluble"},
      {"measurement": "diffusion through porous materials such as rubber and plastic", "setting": "[3]", "result": "diffuse rapidly"}
    ]},
    {"compound": "CCCCCc1cc(O)c2c(c1)OC(C)(C)C1CC=C(C)CC21", "note": "(stereo not drawn) [delta 8 THC]", "values": [
      {"measurement": "individual cannabinoid flux", "setting": "[1]", "result": "0.45 micrograms per square centimeter per hour"}
    ]},
    {"compound": "CCCCCc1cc(O)c2c(c1)OC(C)(C)C1CCC(C)=CC21", "note": "(stereo not drawn) [delta 9 THC]", "values": [
      {"measurement": "individual cannabinoid flux", "setting": "[1]", "result": "4.5 micrograms per square centimeter per hour"}
    ]}
  ]
}
